Reference: PubChem BioAssay (NCI)
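How tested: cells in 96-well plates exposed to compound for 48 hours at five concentrations. GI50 marks 50% less growth. TGI: total growth inhibition.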

Assays:
Assay in all cases: DTP human tumour cell line panel, 48 h
[1] = system: HL-60(TB) leukemia
[2] = system: PC-3 prostate
[3] = system: NCI-H23 lung
[4] = system: NCI/ADR-RES ovarian
[5] = system: ACHN renal
[6] = system: HOP-62 NSCLC
[7] = system: K-562 leukemia
[8] = system: HCT-116 colon
[9] = system: HT29 colon
[10] = system: MCF7 breast
[11] = system: SK-MEL-2 melanoma
[12] = system: SNB-19 CNS
[13] = system: HCT-15 colon
[14] = system: MDA-MB-231 breast
[15] = system: T-47D breast
[16] = system: SK-MEL-5 melanoma
[17] = system: SF-539 CNS
[18] = system: DU-145 prostate
[19] = system: UACC-62 melanoma
[20] = system: SN12C renal
[21] = system: TK-10 renal
[22] = system: SF-295 CNS
[23] = system: SF-268 CNS
[24] = system: NCI-H226 lung
[25] = system: A498 renal
[26] = system: MDA-MB-435
[27] = system: LOX IMVI melanoma
[28] = system: OVCAR-8 ovarian
[29] = system: UACC-257 melanoma
[30] = system: SK-OV-3 ovarian
[31] = system: M14 melanoma
[32] = system: CAKI-1 renal
[33] = system: CCRF-CEM leukemia
[34] = system: SNB-75 CNS
[35] = system: UO-31 renal
[36] = system: OVCAR-5 ovarian
[37] = system: BT-549 breast
[38] = system: A549 NSCLC
[39] = system: 786-0 renal
[40] = system: SR leukemia
[41] = system: OVCAR-3 ovarian
[42] = system: HCC-2998 colon
[43] = system: RPMI-8226 leukemia
[44] = system: SW-620 colon
[45] = system: COLO 205 colon
[46] = system: KM12 colon
[47] = system: IGROV1 ovarian
[48] = system: MOLT-4 leukemia
[49] = system: RXF 393 renal
[50] = system: EKVX NSCLC
[51] = system: NCI-H522 lung
[52] = system: SK-MEL-28 melanoma
[53] = system: NCI-H460 lung
[54] = system: U251 CNS
[55] = system: HS 578T breast
[56] = system: MALME-3M melanoma
[57] = system: OVCAR-4 ovarian

Question: For `COc1cc(C)c(Cl)cc1C1=NN(c2ccc(S(N)(=O)=O)cc2)C(/C=C/c2ccccc2)C1` (centres undefined), which GI50 [1] is on record?
Answer: 3.6 µM

Question: And the TGI [1]?
Answer: 16 µM

Question: What about the GI50 [2] of the same compound?
Answer: 3.11 µM

Question: And the TGI [2]?
Answer: 13.8 µM

Question: What about the GI50 [3] of the same compound?
Answer: 2.02 µM

Question: And the TGI [3]?
Answer: 7.73 µM

Question: What about the GI50 [4] of the same compound?
Answer: 3.46 µM

Question: And the TGI [4]?
Answer: 37.7 µM

Question: And the GI50 [5]?
Answer: 3.2 µM

Question: And the TGI [5]?
Answer: 13.3 µM

Question: What about the GI50 [6] of the same compound?
Answer: 3.1 µM

Question: And the TGI [6]?
Answer: 11.8 µM

Question: What about the GI50 [7] of the same compound?
Answer: 5.29 µM

Question: And the TGI [7]?
Answer: > 100 µM

Question: And the GI50 [8]?
Answer: 1.9 µM

Question: What about the TGI [8] of the same compound?
Answer: 4.72 µM

Question: And the GI50 [9]?
Answer: 1.8 µM

Question: What about the TGI [9] of the same compound?
Answer: 4.07 µM

Question: What about the GI50 [10] of the same compound?
Answer: 2.55 µM

Question: What about the TGI [10] of the same compound?
Answer: 9.13 µM

Question: And the GI50 [11]?
Answer: 3.24 µM

Question: What about the TGI [11] of the same compound?
Answer: 8.75 µM

Question: And the GI50 [12]?
Answer: 8.08 µM

Question: What about the TGI [12] of the same compound?
Answer: > 100 µM

Question: What about the GI50 [13] of the same compound?
Answer: 3.11 µM

Question: What about the TGI [13] of the same compound?
Answer: > 100 µM

Question: And the GI50 [14]?
Answer: 3.3 µM

Question: What about the TGI [14] of the same compound?
Answer: 10.8 µM

Question: What about the GI50 [15] of the same compound?
Answer: 3.34 µM

Question: What about the TGI [15] of the same compound?
Answer: 16 µM

Question: What about the GI50 [16] of the same compound?
Answer: 1.61 µM

Question: What about the TGI [16] of the same compound?
Answer: 3 µM

Question: And the GI50 [17]?
Answer: 4.26 µM

Question: And the TGI [17]?
Answer: 17 µM

Question: What about the GI50 [18] of the same compound?
Answer: 3.91 µM

Question: What about the TGI [18] of the same compound?
Answer: 16.7 µM

Question: And the GI50 [19]?
Answer: 3.77 µM

Question: What about the TGI [19] of the same compound?
Answer: 19.4 µM

Question: And the GI50 [20]?
Answer: 2.68 µM

Question: What about the TGI [20] of the same compound?
Answer: 7.03 µM

Question: And the GI50 [21]?
Answer: 3.25 µM

Question: What about the TGI [21] of the same compound?
Answer: 11.5 µM

Question: What about the GI50 [22] of the same compound?
Answer: 3.17 µM

Question: What about the TGI [22] of the same compound?
Answer: 13.6 µM

Question: And the GI50 [23]?
Answer: 4.4 µM

Question: What about the TGI [23] of the same compound?
Answer: > 100 µM

Question: And the GI50 [24]?
Answer: 1.53 µM

Question: And the TGI [24]?
Answer: 3.46 µM

Question: What about the GI50 [25] of the same compound?
Answer: 2.67 µM

Question: What about the TGI [25] of the same compound?
Answer: 5.71 µM

Question: And the GI50 [26]?
Answer: 2.65 µM

Question: And the TGI [26]?
Answer: 8.4 µM

Question: What about the GI50 [27] of the same compound?
Answer: 1.67 µM

Question: And the TGI [27]?
Answer: 3.21 µM

Question: And the GI50 [28]?
Answer: 3.33 µM

Question: What about the TGI [28] of the same compound?
Answer: 19.1 µM

Question: What about the GI50 [29] of the same compound?
Answer: 3.58 µM

Question: And the TGI [29]?
Answer: 20.5 µM

Question: And the GI50 [30]?
Answer: 3.74 µM

Question: And the TGI [30]?
Answer: 16.2 µM

Question: And the GI50 [31]?
Answer: 4.11 µM

Question: What about the TGI [31] of the same compound?
Answer: 24.3 µM

Question: What about the GI50 [32] of the same compound?
Answer: 2.7 µM

Question: What about the TGI [32] of the same compound?
Answer: 19.1 µM

Question: What about the GI50 [33] of the same compound?
Answer: 4.34 µM

Question: And the TGI [33]?
Answer: > 100 µM

Question: What about the GI50 [34] of the same compound?
Answer: 3 µM

Question: What about the TGI [34] of the same compound?
Answer: 30.1 µM

Question: And the GI50 [35]?
Answer: 2.54 µM

Question: And the TGI [35]?
Answer: 12.6 µM

Question: What about the GI50 [36] of the same compound?
Answer: 4.04 µM

Question: What about the TGI [36] of the same compound?
Answer: 57.3 µM

Question: What about the GI50 [37] of the same compound?
Answer: 2.35 µM

Question: What about the TGI [37] of the same compound?
Answer: 4.76 µM

Question: And the GI50 [38]?
Answer: 3.31 µM

Question: What about the TGI [38] of the same compound?
Answer: 19.3 µM

Question: And the GI50 [39]?
Answer: 3.67 µM

Question: What about the TGI [39] of the same compound?
Answer: 11.9 µM

Question: And the GI50 [40]?
Answer: 3.06 µM

Question: And the TGI [40]?
Answer: 8.91 µM

Question: What about the GI50 [41] of the same compound?
Answer: 2.61 µM

Question: And the TGI [41]?
Answer: 6.46 µM

Question: What about the GI50 [42] of the same compound?
Answer: 2.57 µM

Question: What about the TGI [42] of the same compound?
Answer: 8.49 µM

Question: And the GI50 [43]?
Answer: 2.76 µM

Question: And the TGI [43]?
Answer: 7.93 µM

Question: And the GI50 [44]?
Answer: 4.09 µM

Question: And the TGI [44]?
Answer: 20.7 µM

Question: And the GI50 [45]?
Answer: 1.76 µM

Question: What about the TGI [45] of the same compound?
Answer: 3.33 µM

Question: What about the GI50 [46] of the same compound?
Answer: 3.4 µM

Question: What about the TGI [46] of the same compound?
Answer: 14.8 µM

Question: And the GI50 [47]?
Answer: 4.15 µM

Question: What about the TGI [47] of the same compound?
Answer: 43.9 µM

Question: And the GI50 [48]?
Answer: 3.37 µM

Question: And the TGI [48]?
Answer: 64.4 µM

Question: And the GI50 [49]?
Answer: 1.71 µM

Question: And the TGI [49]?
Answer: 3.5 µM

Question: What about the GI50 [50] of the same compound?
Answer: 2.68 µM

Question: And the TGI [50]?
Answer: 22 µM

Question: What about the GI50 [51] of the same compound?
Answer: 2.3 µM

Question: What about the TGI [51] of the same compound?
Answer: 5.34 µM

Question: What about the GI50 [52] of the same compound?
Answer: 3.1 µM

Question: What about the TGI [52] of the same compound?
Answer: 11.4 µM

Question: And the GI50 [53]?
Answer: 2.43 µM

Question: And the TGI [53]?
Answer: 6.3 µM

Question: What about the GI50 [54] of the same compound?
Answer: 3.12 µM

Question: What about the TGI [54] of the same compound?
Answer: 11.3 µM

Question: What about the GI50 [55] of the same compound?
Answer: 2.89 µM

Question: What about the TGI [55] of the same compound?
Answer: 9.83 µM

Question: And the GI50 [56]?
Answer: 2.68 µM

Question: And the TGI [56]?
Answer: 9.98 µM

Question: What about the GI50 [57] of the same compound?
Answer: 2.77 µM

Question: What about the TGI [57] of the same compound?
Answer: 24.9 µM
